Experiments:
JAK1 = molecular target: T1, JAK1 (Homo sapiens, UniProt P23458); experiment: In vitro activity test of JAK1 kinase (Caliper EZ Reader conversion assay); assay type: biochemical; settings: enzyme activity, 10 concentrations from 1000 nM, 3-fold dilution
T1 construct: purchased Carna 08-114
Procedure: (§1) In Vitro Activity Test of JAK1 and JAK2 Kinases
(§2) • Centrifuge (manufacturer: Eppendorf, model: 5430) • ELISA Instrument (Manufacturer: Perkin Elmer, Model: Caliper EZ Reader 1I) • Echo 550 (Manufacturer: Labcyte, Model: Echo 550)
(§3) (1) Prepare 1 Kinase buffer.
(§4) (2) Compound concentration gradient preparation: The test compound was tested at 1000 nM, 3-fold dilution, 10 concentrations, two-well assay, and configured to a 100-fold final concentration in a 384-well plate. 250 nl of the test compound was then transferred to the 384 reaction plate using Echo550. 250 nl of 100% DMSO was added to each of the negative and positive control wells.
(§5) (3) Prepare 2.5 times the final concentration of kinase solution with 1×Kinase buffer.
(§6) (4) Add 10 μL of 2.5 times the final concentration of kinase solution to the compound wells and 10 μL of 1×Kinase buffer to the negative control wells.
(§7) (5) Centrifuge at 1000 rpm for 30 seconds, mix well with shaking, and incubate at room temperature for 10 minutes.
(§8) (6) Prepare a 25/15-fold final concentration of mixture of ATP and Kinase substrate with 1×Kinase buffer.
(§9) (7) Add 15 μL of a mixture of 25/15 times the final concentration of ATP and substrate to start the reaction.
(§10) (8) Centrifuge the 384-well plate at 1000 rpm for 30 seconds, mix well with shaking, and incubate at room temperature for an appropriate amount of time.
(§11) (9) Stop the kinase reaction by adding 30 μL of termination solution, centrifuge at 1000 rpm for 30 seconds, and mix well with shaking.
(§12) (10) Read the conversion rate with Caliper EZ Reader.
(§13) where: Conversion %_sample is the conversion rate reading of the sample-, Conversion %_min: the average value of the negative control wells, representing the conversion reading of the wells without enzyme activity: Conversion %-max: the average value of the positive control wells, representing the conversion reading of the wells without compound inhibition.
(§14) The log value of concentration was used as the X-axis and the percentage inhibition as the Y-axis, and the function of the analytical software GraphPad Prism 5; log(inhibitor) vs. response -Variable slope, was used to lit dose-effect curves to obtain the IC50) values of each compound on enzyme activity.
(§15) The formula is Y=Bottom+(Top-Bottom)/(1+10^((LogIC50-X)*HillSlope))
(§16) The 1C50 data are specified in Table 1.

JAK2 = molecular target: T2, JAK2 (Homo sapiens, UniProt O60674); experiment: In vitro activity test of JAK2 kinase (Caliper EZ Reader conversion assay); assay type: biochemical; settings: enzyme activity, 10 concentrations from 1000 nM, 3-fold dilution
T2 construct: purchased Carna 08-045
T2 sequence (O60674 whole entry, species assumed): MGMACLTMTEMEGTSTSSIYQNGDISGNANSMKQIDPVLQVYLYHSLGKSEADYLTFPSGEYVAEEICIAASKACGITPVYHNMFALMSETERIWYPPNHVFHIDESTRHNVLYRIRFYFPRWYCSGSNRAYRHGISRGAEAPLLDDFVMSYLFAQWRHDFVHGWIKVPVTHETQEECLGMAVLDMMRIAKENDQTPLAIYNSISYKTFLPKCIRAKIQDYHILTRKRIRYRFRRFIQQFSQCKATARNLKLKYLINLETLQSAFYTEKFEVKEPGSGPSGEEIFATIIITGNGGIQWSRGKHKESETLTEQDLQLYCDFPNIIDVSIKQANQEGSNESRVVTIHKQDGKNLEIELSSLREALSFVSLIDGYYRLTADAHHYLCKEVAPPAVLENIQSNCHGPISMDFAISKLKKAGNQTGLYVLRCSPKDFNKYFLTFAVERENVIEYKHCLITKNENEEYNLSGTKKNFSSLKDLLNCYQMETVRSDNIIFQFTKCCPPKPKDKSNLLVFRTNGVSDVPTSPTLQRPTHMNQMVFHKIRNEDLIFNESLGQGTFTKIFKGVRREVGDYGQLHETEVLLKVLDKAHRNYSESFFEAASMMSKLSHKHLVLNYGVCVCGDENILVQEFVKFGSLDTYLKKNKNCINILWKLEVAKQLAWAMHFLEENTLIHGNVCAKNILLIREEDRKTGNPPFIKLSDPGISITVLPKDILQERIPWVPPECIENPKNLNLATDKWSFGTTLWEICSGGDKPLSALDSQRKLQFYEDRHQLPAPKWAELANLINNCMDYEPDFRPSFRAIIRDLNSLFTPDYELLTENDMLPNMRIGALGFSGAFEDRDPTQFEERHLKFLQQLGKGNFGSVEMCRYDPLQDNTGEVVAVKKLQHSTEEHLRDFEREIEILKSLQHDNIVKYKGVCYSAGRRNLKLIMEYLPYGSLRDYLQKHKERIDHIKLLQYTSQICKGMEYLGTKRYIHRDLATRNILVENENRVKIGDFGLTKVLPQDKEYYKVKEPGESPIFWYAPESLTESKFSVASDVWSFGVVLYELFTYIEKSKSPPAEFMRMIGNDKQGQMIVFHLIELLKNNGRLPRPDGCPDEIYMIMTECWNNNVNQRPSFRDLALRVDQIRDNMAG
Procedure: as §1, §2, §3, §4, §5, §6, §7, §8, §9, §10, §11, §12, §13, §14, §15, §16

T1 sequence (P23458 whole entry, species assumed): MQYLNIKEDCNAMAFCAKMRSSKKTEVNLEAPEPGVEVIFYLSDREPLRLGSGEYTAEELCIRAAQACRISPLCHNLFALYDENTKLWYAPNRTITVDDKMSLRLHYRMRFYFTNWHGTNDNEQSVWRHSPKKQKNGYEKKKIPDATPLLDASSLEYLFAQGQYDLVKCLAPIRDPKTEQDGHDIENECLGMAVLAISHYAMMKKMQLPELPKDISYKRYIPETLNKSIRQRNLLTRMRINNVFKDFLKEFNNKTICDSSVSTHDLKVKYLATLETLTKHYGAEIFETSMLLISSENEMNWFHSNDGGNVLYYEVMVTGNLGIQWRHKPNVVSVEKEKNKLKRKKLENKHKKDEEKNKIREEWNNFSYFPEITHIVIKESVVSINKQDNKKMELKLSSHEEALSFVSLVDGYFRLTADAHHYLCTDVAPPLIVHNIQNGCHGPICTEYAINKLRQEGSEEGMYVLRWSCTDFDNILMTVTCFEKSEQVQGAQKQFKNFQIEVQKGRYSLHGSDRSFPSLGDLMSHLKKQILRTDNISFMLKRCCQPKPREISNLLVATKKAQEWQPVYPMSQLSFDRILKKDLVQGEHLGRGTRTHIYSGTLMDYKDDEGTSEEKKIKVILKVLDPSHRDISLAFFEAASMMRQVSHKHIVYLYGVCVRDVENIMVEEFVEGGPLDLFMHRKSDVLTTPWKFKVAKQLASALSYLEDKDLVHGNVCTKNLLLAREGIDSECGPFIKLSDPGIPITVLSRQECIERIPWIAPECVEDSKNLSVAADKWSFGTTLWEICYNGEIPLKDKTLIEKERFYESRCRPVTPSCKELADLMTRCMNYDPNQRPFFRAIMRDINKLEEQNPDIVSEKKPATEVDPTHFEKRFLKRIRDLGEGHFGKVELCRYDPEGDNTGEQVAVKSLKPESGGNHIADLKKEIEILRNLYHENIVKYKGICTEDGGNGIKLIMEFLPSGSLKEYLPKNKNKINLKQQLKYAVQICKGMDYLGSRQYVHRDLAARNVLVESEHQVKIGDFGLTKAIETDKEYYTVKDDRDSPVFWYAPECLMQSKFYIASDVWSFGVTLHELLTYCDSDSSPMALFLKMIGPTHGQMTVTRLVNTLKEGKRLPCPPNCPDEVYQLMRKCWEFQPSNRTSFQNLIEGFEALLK

SMILES	IC50 (JAK1) [nM]	IC50 (JAK2) [nM]
C[C@@H](O)c1nc2cnc3[nH]ccc3c2n1-c1ccc(C#N)cc1 [LXS54, (R)-4-(2-(1-Hydroxyethyl)imidazo[4,5-d]pyrrolo[2,3-b]pyridin-1(6H)-yl)benzonitrile]	100 to 1000	100 to 1000
CS(=O)(=O)c1ccc(C2Nc3cnc4[nH]ccc4c3N2c2ccc(C#N)cc2)cc1 (stereo not drawn) [LXS57, 4-(2-(4-(Methylsulfonyl)phenyl)-2,3-dihydroimidazo[4,5-d]pyrrolo[2,3-b]pyridin-1(6H)-yl)benzonitrile]	100 to 1000	100 to 1000
C[C@@H](O)c1nc2cnc3[nH]ccc3c2n1[C@@H]1CCN(CCC#N)C1 [LXS58, 3-((R)-3-(2-((R)-1-Hydroxyethyl)imidazo[4,5-d]pyrrolo[2,3-b]pyridin-1(6H)-yl)pyrrolidin-1-yl)propanenitrile]	10 to 100	10 to 100
C[C@@H](O)c1nc2cnc3[nH]ccc3c2n1C1CCN(C(=O)C2(C#N)CC2)C1 (stereo partly drawn) [LXS61, 1-(3-(2-((R)-1-Hydroxyethyl)imidazo[4,5-d]pyrrolo[2,3-b]pyridin-1(6H)-yl)pyrrolidin-1-carbonyl)cyclopropanecarbonitrile]	100 to 1000	100 to 1000
CCS(=O)(=O)N1CC(CC#N)(n2cc(-n3c(-c4ccc(C)s4)nc4cnc5[nH]ccc5c43)cn2)C1 [LXS62, 2-(1-(Ethylsulfonyl)-3-(4-(2-(5-methylthien-2-yl)imidazo[4,5-d]pyrrolo[2,3-b]pyridin-1(6H)-yl)-1H-pyrazol-1-yl)azetidin-3-yl)acetonitrile]	100 to 1000	< 10
C[C@@H](O)c1nc2cnc3[nH]ccc3c2n1[C@H]1CCN(CCCCC#N)C1 [LXS68, 5-((S)-3-(2-((R)-1-Hydroxyethyl)imidazo[4,5-d]pyrrolo[2,3-b]pyridin-1(6H)-yl)pyrrolidin-1-yl)pentanonitrile]	< 10	100 to 1000
C[C@@H](O)c1nc2cnc3[nH]ccc3c2n1[C@@H]1CN(CCCC#N)CC12CC2 [LXS69, 4-((S)-7-(2-((R)-1-Hydroxyethyl)imidazo[4,5-d]pyrrolo[2,3-b]pyridin-1(6H)-yl)-5-azaspiro[2,4]hept-5-yl)butanenitrile]	10 to 100	10 to 100
C[C@@H](O)c1nc2cnc3[nH]ccc3c2n1[C@@H]1CN(CCCC(F)(F)F)CC12CC2 [LXS70, (R)-1-(1-((S)-5-(4,4,4-Trifluorobutyl)-5-azaspiro[2,4]hept-7-yl)-1,6-dihydroimidazo[4,5-d]pyrrolo[2,3-b]pyridin-2-yl)ethanol]	10 to 100	10 to 100
C[C@@H](O)c1nc2cnc3[nH]ccc3c2n1[C@H]1CCN(CCCC(F)(F)F)C1 [LXS71, (R)-1-(1-((S)-1-(4,4,4-Trifluorobutyl)pyrrolidin-3-yl)-1,6-dihydroimidazo[4,5-d]pyrrolo[2,3-b]pyridin-2-yl)ethanol]	< 10	100 to 1000
C[C@@H](O)c1nc2cnc3[nH]ccc3c2n1[C@H]1CCN(CCCCCF)C1 [LXS73, (R)-1-(1-((S)-1-(5-fluoropentyl)pyrrolidin-3-yl)-1,6-dihydroimidazo[4,5-d]pyrrolo[2,3-b]pyridin-2-yl) ethanol]	< 10	100 to 1000
C[C@@H](O)c1nc2cnc3[nH]ccc3c2n1[C@H]1CCN(CC(=O)NCC(F)(F)F)C1 [LXS74, 2-((S)-3-(2-((R)-1-Hydroxyethyl)imidazo[4,5-d]pyrrolo[2,3-b]pyridin-1(6H)-yl)pyrrolidin-1-yl)-N-(2,2,2-trifluoroethyl)acetamide]	< 10	100 to 1000
CC(C(=O)NCC(F)(F)F)N1CC[C@H](n2c([C@@H](C)O)nc3cnc4[nH]ccc4c32)C1 (stereo partly drawn) [LXS75, 2-((S)-3-(2-((R)-1-Hydroxyethyl)imidazo[4,5-d]pyrrolo[2,3-b]pyridin-1(6H)-yl)pyrrolidin-1-yl)-N-(2,2,2-trifluoroethyl)propanamide]	< 10	100 to 1000
CCC(C(=O)NCC(F)(F)F)N1CC[C@H](n2c([C@@H](C)O)nc3cnc4[nH]ccc4c32)C1 (stereo partly drawn) [LXS76, 2-((S)-3-(2-((R)-1-Hydroxyethyl)imidazo[4,5-d]pyrrolo[2,3-b]pyridin-1(6H)-yl)pyrrolidin-1-yl)-N-(2,2,2-trifluoroethyl)butanamide]	< 10	100 to 1000
N#CCCn1cc(-n2cnc3cnc4[nH]ccc4c32)cn1 [LXS79, 3-(4-(Imidazo[4,5-d]pyrrolo[2,3-b]pyridin-1(6H)-yl)-1H-pyrazol-1-yl)propanenitrile]	100 to 1000	< 10

More lines, now with the values ahead:

IC50 (JAK1) [nM]	IC50 (JAK2) [nM]	SMILES
100 to 1000	100 to 1000	N#Cc1ccc(-n2c(-c3ccc(CO)o3)nc3cnc4[nH]ccc4c32)cc1 [LXS55, 4-(2-(5-(Hydroxymethyl)furan-2-yl)imidazo[4,5-d]pyrrolo[2,3-b]pyridin-1(6H)-yl)benzonitrile]
10 to 100	100 to 1000	N#Cc1ccc(-n2c(-c3cccc(O)c3)nc3cnc4[nH]ccc4c32)cc1 [LXS56, 4-(2-(3-Hydroxyphenyl)imidazo[4,5-d]pyrrolo[2,3-b]pyridin-1(6H)-yl)benzonitrile]
10 to 100	100 to 1000	C[C@@H](O)c1nc2cnc3[nH]ccc3c2n1[C@H]1CCN(CCC#N)C1 [LXS59, 3-((S)-3-(2-((R)-1-hydroxyethyl)imidazo[4,5-d]pyrrolo[2,3-b]pyridin-1(6H)-yl)pyrrolidin-1-yl)propanenitrile]
10 to 100	10 to 100	CS(=O)(=O)c1ccc(C2Nc3cnc4[nH]ccc4c3N2C2CCN(CCC#N)C2)cc1 (stereo not drawn) [LXS60, 3-(3-(2-(4-(Methylsulfonyl)phenyl)-2,3-dihydroimidazo[4,5-d]pyrrolo[2,3-b]pyridin-1(6H)-yl)pyrrolidin-1-yl)propanenitrile]
100 to 1000	< 10	CCS(=O)(=O)N1CC(CC#N)(n2cc(-n3c(-c4cccs4)nc4cnc5[nH]ccc5c43)cn2)C1 [LXS63, 2-(1-(Ethylsulfonyl)-3-(4-(2-(thiophen-2-yl)imidazo[4,5-d]pyrrolo[2,3-b]pyridin-1(6H)-yl)-1H-pyrazol-1-yl)azetidin-3-yl)acetonitrile]
100 to 1000	< 10	N#CCCn1cc(-n2c(C(F)(F)F)nc3cnc4[nH]ccc4c32)cn1 [LXS64, 3-(4-(2-(Trifluoromethyl)imidazo[4,5-d]pyrrolo[2,3-b]pyridin-1(6H)-yl)-1H-pyrazol-1-yl)propanenitrile]
< 10	100 to 1000	C[C@@H](O)c1nc2cnc3[nH]ccc3c2n1[C@H]1CCN(CCCC#N)C1 [LXS65, 4-((S)-3-(2-((R)-1-Hydroxyethyl)imidazo[4,5-d]pyrrolo[2,3-b]pyridin-1(6H)-yl)pyrrolidin-1-yl)butanenitrile]
10 to 100	10 to 100	N#CCC(C1CCCC1)n1cc(-n2c(C(F)(F)F)nc3cnc4[nH]ccc4c32)cn1 (stereo not drawn) [LXS66, 3-Cyclopentyl-3-(4-(2-(trifluoromethyl)imidazo[4,5-d]pyrrolo[2,3-b]pyridin-1(6H)-yl)-1H-pyrazol-1-yl)propanenitrile]
10 to 100	10 to 100	CS(=O)(=O)c1ccc(C2Nc3cnc4[nH]ccc4c3N2c2cnn(CCC#N)c2)cc1 (stereo not drawn) [LXS67, 3-(4-(2-(4-(Methylsulfonyl)phenyl)-2,3-dihydroimidazo[4,5-d]pyrrolo[2,3-b]pyridin-1(6H)-yl)-1H-pyrazol-1-yl)propanenitrile]
10 to 100	10 to 100	C[C@@H](O)c1nc2cnc3[nH]ccc3c2n1[C@@H]1CN(CCCCC#N)CC12CC2 [LXS72, 5-((S)-7-(2-((R)-1-Hydroxyethyl)imidazo[4,5-d]pyrrolo[2,3-b]pyridin-1(6H)-yl)-5-azaspiro[2,4]hept-5-yl)pentanonitrile]
100 to 1000	< 10	CCS(=O)(=O)N1CC(CC#N)(n2cc(-n3c(-c4ccc(C)o4)nc4cnc5[nH]ccc5c43)cn2)C1 [LXS77, 2-(1-(ethylsulfonyl)-3-(4-(2-(5-methylfuran-2-yl)imidazolyl[4,5-d]pyrrolo[2,3-b]pyridin-1(6H)-yl)-1H-pyrazol-1-yl)azetidin-3-yl) acetonitrile]
10 to 100	10 to 100	N#CCn1cc(-n2c(C(F)(F)F)nc3cnc4[nH]ccc4c32)cn1 [LXS78, 2-(4-(2-(Trifluoromethyl)imidazo[4,5-d]pyrrolo[2,3-b]pyridin-1(6H)-yl)-1H-pyrazol-1-yl)acetonitrile]
10 to 100	10 to 100	N#CCCn1cc(-n2c(-c3ccccc3Cl)nc3cnc4[nH]ccc4c32)cn1 [LXS80, 3-(4-(2-(2-Chlorophenyl)imidazo[4,5-d]pyrrolo[2,3-b]pyridin-1(6H)-yl)-1H-pyrazol-1-yl)propanenitrile]

— US20240383898A1, “PYRIDO RING COMPOUND, PREPARATION METHOD THEREFOR, INTERMEDIATE, COMPOSITION, AND APPLICATION” (YIYOU BIOTECH (SHANGHAI) CO., LTD, priority 2021, published 2024)
